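1) Cells in 96-well plates. 2) Compound, 48 h, 5 concentrations. 3) Linear interpolation between surrounding doses. 4) Unreached endpoint = highest concentration. TGI is the concentration that stops growth completely.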
Tests used:
Assay in all cases: NCI tumour cell line growth inhibition, 48 h
HCT-15 colon = test system: HCT-15 colon
NCI-H522 lung = test system: NCI-H522 lung
SK-MEL-28 melanoma = test system: SK-MEL-28 melanoma
OVCAR-4 ovarian = test system: OVCAR-4 ovarian
HCT-116 colon = test system: HCT-116 colon
PC-3 prostate = test system: PC-3 prostate
CAKI-1 renal = test system: CAKI-1 renal
MOLT-4 leukemia = test system: MOLT-4 leukemia
COLO 205 colon = test system: COLO 205 colon
MDA-MB-435 = test system: MDA-MB-435
HT29 colon = test system: HT29 colon
LOX IMVI melanoma = test system: LOX IMVI melanoma
NCI-H23 lung = test system: NCI-H23 lung
SF-539 CNS = test system: SF-539 CNS
KM12 colon = test system: KM12 colon
UACC-257 melanoma = test system: UACC-257 melanoma
SNB-75 CNS = test system: SNB-75 CNS
A498 renal = test system: A498 renal
OVCAR-8 ovarian = test system: OVCAR-8 ovarian
SK-MEL-2 melanoma = test system: SK-MEL-2 melanoma
TK-10 renal = test system: TK-10 renal
UO-31 renal = test system: UO-31 renal
HOP-62 NSCLC = test system: HOP-62 NSCLC
A549 NSCLC = test system: A549 NSCLC
OVCAR-5 ovarian = test system: OVCAR-5 ovarian
SF-268 CNS = test system: SF-268 CNS
RXF 393 renal = test system: RXF 393 renal
NCI-H226 lung = test system: NCI-H226 lung
SF-295 CNS = test system: SF-295 CNS
U251 CNS = test system: U251 CNS
786-0 renal = test system: 786-0 renal
K-562 leukemia = test system: K-562 leukemia
SK-MEL-5 melanoma = test system: SK-MEL-5 melanoma
UACC-62 melanoma = test system: UACC-62 melanoma
RPMI-8226 leukemia = test system: RPMI-8226 leukemia
DU-145 prostate = test system: DU-145 prostate
IGROV1 ovarian = test system: IGROV1 ovarian
MCF7 breast = test system: MCF7 breast
BT-549 breast = test system: BT-549 breast
MDA-N = test system: MDA-N
SR leukemia = test system: SR leukemia
ACHN renal = test system: ACHN renal
NCI-H460 lung = test system: NCI-H460 lung
HCC-2998 colon = test system: HCC-2998 colon
SN12C renal = test system: SN12C renal
MDA-MB-231 breast = test system: MDA-MB-231 breast
OVCAR-3 ovarian = test system: OVCAR-3 ovarian
M14 melanoma = test system: M14 melanoma
HOP-92 NSCLC = test system: HOP-92 NSCLC
NCI/ADR-RES ovarian = test system: NCI/ADR-RES ovarian
HS 578T breast = test system: HS 578T breast
CCRF-CEM leukemia = test system: CCRF-CEM leukemia
MALME-3M melanoma = test system: MALME-3M melanoma
SNB-19 CNS = test system: SNB-19 CNS
EKVX NSCLC = test system: EKVX NSCLC
SK-OV-3 ovarian = test system: SK-OV-3 ovarian
HL-60(TB) leukemia = test system: HL-60(TB) leukemia
SW-620 colon = test system: SW-620 colon
T-47D breast = test system: T-47D breast

Measured: TGI

CC(=O)OC1C[C@@H](C)C2(C[C@H](O)c3ccoc3)C(=O)OC[C@]13C2CCC(O)C31CO1 (some centres undefined)
> 100 µM: HCT-15 colon | NCI-H522 lung | SK-MEL-28 melanoma | OVCAR-4 ovarian | HCT-116 colon | PC-3 prostate | CAKI-1 renal | MOLT-4 leukemia | COLO 205 colon | MDA-MB-435 | HT29 colon | LOX IMVI melanoma | NCI-H23 lung | SF-539 CNS | KM12 colon | UACC-257 melanoma | SNB-75 CNS | A498 renal | OVCAR-8 ovarian | SK-MEL-2 melanoma | TK-10 renal | UO-31 renal | HOP-62 NSCLC | A549 NSCLC | OVCAR-5 ovarian | SF-268 CNS | RXF 393 renal | NCI-H226 lung | SF-295 CNS | U251 CNS | 786-0 renal | K-562 leukemia | SK-MEL-5 melanoma | UACC-62 melanoma | RPMI-8226 leukemia | DU-145 prostate | IGROV1 ovarian | MCF7 breast | BT-549 breast | MDA-N | SR leukemia | ACHN renal | NCI-H460 lung | HCC-2998 colon | SN12C renal | MDA-MB-231 breast | OVCAR-3 ovarian | M14 melanoma | HOP-92 NSCLC | NCI/ADR-RES ovarian | HS 578T breast | CCRF-CEM leukemia | MALME-3M melanoma | SNB-19 CNS

Cc1ccc(N(C)S(=O)(=O)c2ccc([N+](=O)[O-])cc2)cc1
> 100 µM: HCT-15 colon | NCI-H522 lung | SK-MEL-28 melanoma | OVCAR-4 ovarian | HCT-116 colon | PC-3 prostate | CAKI-1 renal | MOLT-4 leukemia | COLO 205 colon | MDA-MB-435 | HT29 colon | LOX IMVI melanoma | SF-539 CNS | EKVX NSCLC | SK-OV-3 ovarian | KM12 colon | UACC-257 melanoma | SNB-75 CNS | OVCAR-8 ovarian | SK-MEL-2 melanoma | TK-10 renal | UO-31 renal | HOP-62 NSCLC | A549 NSCLC | OVCAR-5 ovarian | SF-268 CNS | RXF 393 renal | NCI-H226 lung | HL-60(TB) leukemia | SF-295 CNS | U251 CNS | 786-0 renal | K-562 leukemia | UACC-62 melanoma | RPMI-8226 leukemia | DU-145 prostate | IGROV1 ovarian | MCF7 breast | BT-549 breast | MDA-N | SR leukemia | ACHN renal | SW-620 colon | NCI-H460 lung | HCC-2998 colon | SN12C renal | MDA-MB-231 breast | OVCAR-3 ovarian | M14 melanoma | NCI/ADR-RES ovarian | HS 578T breast | CCRF-CEM leukemia | MALME-3M melanoma | SNB-19 CNS

Cn1c(-c2ccc(/C=N/N=C/c3ccc(-c4c[n+]5ccccc5n4C)cc3)cc2)c[n+]2ccccc12
> 100 µM: HCT-15 colon | NCI-H522 lung | SK-MEL-28 melanoma | OVCAR-4 ovarian | HCT-116 colon | PC-3 prostate | MOLT-4 leukemia | COLO 205 colon | MDA-MB-435 | HT29 colon | SF-539 CNS | EKVX NSCLC | SK-OV-3 ovarian | KM12 colon | UACC-257 melanoma | SNB-75 CNS | OVCAR-8 ovarian | TK-10 renal | UO-31 renal | HOP-62 NSCLC | A549 NSCLC | OVCAR-5 ovarian | SF-268 CNS | HL-60(TB) leukemia | SF-295 CNS | U251 CNS | 786-0 renal | K-562 leukemia | SK-MEL-5 melanoma | T-47D breast | RPMI-8226 leukemia | IGROV1 ovarian | MCF7 breast | MDA-N | SR leukemia | ACHN renal | SW-620 colon | NCI-H460 lung | HCC-2998 colon | SN12C renal | MDA-MB-231 breast | M14 melanoma | NCI/ADR-RES ovarian | HS 578T breast | CCRF-CEM leukemia | SNB-19 CNS

Reference: PubChem BioAssay (NCI)
